Measured values reported in patent publication US9840513B2 (AbbVie S.à.r.l., priority 2015, dated 2017).
pEC50: −log10 of the molar value.

Target: T1, F508delCFTR cell surface expression in CFBE41o-F508delCFTR-HRP cells (Homo sapiens, UniProt P13569, DEL508-508)
T1 construct: fused on or other part: Horseradish peroxidase (HRP) reporter inserted in the fourth exofacial (extracellular) loop of CFTR; expression is doxycycline-inducible
Test: Cell Surface Expression-Horse Radish Peroxidase (CSE-HRP) Assay
Type: cell-based
Settings: for pEC50: CFBE41o-F508delCFTR-HRP cells, 18-24 hours at 33° C., 8-point curve, highest concentration 20 μM; for Maximum % activity (%): maximum at any tested concentration, normalized to on-plate positive control (3 μM)
Method in brief: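 Correctors incubated 18-24 h at 33 °C on doxycycline-induced (0.5 μg/mL, 72 h) CFBE41o-F508delCFTR-HRP cells, 3-fold series from 20 μM. After DPBS washes, luminol luminescence read; activity expressed relative to DMSO and a 3 μM positive control, EC50 fitted from triplicate plates.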

T1 sequence (P13569 with tags, fused parts or gaps DEL508-508 limits assumed): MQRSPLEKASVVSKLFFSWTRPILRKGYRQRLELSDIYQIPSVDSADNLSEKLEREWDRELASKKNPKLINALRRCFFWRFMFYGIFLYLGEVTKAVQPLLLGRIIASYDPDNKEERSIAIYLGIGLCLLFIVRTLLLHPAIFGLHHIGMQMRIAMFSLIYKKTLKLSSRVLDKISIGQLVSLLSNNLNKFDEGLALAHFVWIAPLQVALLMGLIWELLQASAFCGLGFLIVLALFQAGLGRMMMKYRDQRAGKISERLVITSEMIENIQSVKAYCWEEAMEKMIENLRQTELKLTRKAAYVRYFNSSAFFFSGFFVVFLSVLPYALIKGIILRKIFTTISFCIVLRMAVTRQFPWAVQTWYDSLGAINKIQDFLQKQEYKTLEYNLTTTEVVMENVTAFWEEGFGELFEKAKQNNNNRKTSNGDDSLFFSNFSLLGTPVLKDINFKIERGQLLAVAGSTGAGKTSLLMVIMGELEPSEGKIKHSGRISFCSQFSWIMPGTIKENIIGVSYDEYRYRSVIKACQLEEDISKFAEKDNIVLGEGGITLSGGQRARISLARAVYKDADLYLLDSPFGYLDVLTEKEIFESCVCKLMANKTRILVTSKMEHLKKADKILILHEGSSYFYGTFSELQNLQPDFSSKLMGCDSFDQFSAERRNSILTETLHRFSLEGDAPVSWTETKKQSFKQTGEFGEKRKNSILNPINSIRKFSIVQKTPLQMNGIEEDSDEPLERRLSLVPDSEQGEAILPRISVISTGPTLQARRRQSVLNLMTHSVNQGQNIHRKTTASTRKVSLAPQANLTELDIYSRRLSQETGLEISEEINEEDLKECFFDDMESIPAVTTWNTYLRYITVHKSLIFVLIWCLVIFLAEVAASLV
T1 sequence (P13569 919-1480 limits assumed, stated change not applied): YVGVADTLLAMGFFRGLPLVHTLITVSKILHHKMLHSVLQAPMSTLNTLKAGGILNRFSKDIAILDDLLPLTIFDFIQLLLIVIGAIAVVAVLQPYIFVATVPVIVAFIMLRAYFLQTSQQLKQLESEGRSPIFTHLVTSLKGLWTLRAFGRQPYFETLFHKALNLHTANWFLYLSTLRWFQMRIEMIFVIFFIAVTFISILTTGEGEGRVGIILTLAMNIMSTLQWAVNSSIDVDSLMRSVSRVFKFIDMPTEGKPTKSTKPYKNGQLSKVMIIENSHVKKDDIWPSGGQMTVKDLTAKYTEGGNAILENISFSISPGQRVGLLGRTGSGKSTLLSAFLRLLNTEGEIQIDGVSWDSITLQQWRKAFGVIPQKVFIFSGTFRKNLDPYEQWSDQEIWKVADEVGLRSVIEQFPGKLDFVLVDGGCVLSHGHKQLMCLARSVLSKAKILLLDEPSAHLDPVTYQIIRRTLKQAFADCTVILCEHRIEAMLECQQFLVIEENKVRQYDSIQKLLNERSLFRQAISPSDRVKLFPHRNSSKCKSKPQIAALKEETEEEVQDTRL

| Structure (SMILES) | pEC50 | Maximum % activity (%) |
| --- | --- | --- |
| C[C@]1(C(=O)N[C@@H]2C[C@H]([C@H]3CC[C@H](C(=O)N4CCC(O)CC4)CC3)Oc3cc(OC(F)(F)F)ccc32)COc2cc3c(cc21)OC(F)(F)O3 [Example 265, (7R)-2,2-difluoro-N-[(2R,4R)-2-[trans-4-(4-hydroxypiperidine-1-carbonyl)cyclohexyl]-7-(trifluoromethoxy)-3,4-dihydro-2H-1-benzopyran-4-yl]-7-methyl-6,7-dihydro-2H-furo[2,3-f][1,3]benzodioxole-7-carboxamide] | 7.10 | 173 |
| C[C@]1(C(=O)N[C@@H]2C[C@H]([C@H]3CC[C@H](C(=O)N4CCN(CCO)CC4)CC3)Oc3cc(OC(F)(F)F)ccc32)COc2cc3c(cc21)OC(F)(F)O3 [Example 266, (7R)-2,2-difluoro-N-[(2R,4R)-2-{trans-4-[4-(2-hydroxyethyl)piperazine-1-carbonyl]cyclohexyl}-7-(trifluoromethoxy)-3,4-dihydro-2H-1-benzopyran-4-yl]-7-methyl-6,7-dihydro-2H-furo[2,3-f][1,3]benzodioxole-7-carboxamide] | 6.96 | 160 |
| CC(C)(O)CNC(=O)[C@H]1CC[C@H]([C@H]2C[C@@H](NC(=O)[C@@]3(C)COc4cc5c(cc43)OC(F)(F)O5)c3ccc(OC(F)(F)F)cc3O2)CC1 [Example 267, (7R)-2,2-difluoro-N-[(2R,4R)-2-{trans-4-[(2-hydroxy-2-methylpropyl)carbamoyl]cyclohexyl}-7-(trifluoromethoxy)-3,4-dihydro-2H-1-benzopyran-4-yl]-7-methyl-6,7-dihydro-2H-furo[2,3-f][1,3]benzodioxole-7-carboxamide] | 7.05 | 166 |
| CC(C)(CO)NC(=O)[C@H]1CC[C@H]([C@H]2C[C@@H](NC(=O)[C@@]3(C)COc4cc5c(cc43)OC(F)(F)O5)c3ccc(OC(F)(F)F)cc3O2)CC1 [Example 268, (7R)-2,2-difluoro-N-[(2R,4R)-2-{trans-4-[(1-hydroxy-2-methylpropan-2-yl)carbamoyl]cyclohexyl}-7-(trifluoromethoxy)-3,4-dihydro-2H-1-benzopyran-4-yl]-7-methyl-6,7-dihydro-2H-furo[2,3-f][1,3]benzodioxole-7-carboxamide] | 6.92 | 186 |
| C[C@]1(C(=O)N[C@@H]2C[C@H]([C@H]3CC[C@H](C(=O)NC(CO)c4ccccc4)CC3)Oc3cc(OC(F)(F)F)ccc32)COc2cc3c(cc21)OC(F)(F)O3 (stereo partly drawn) [Example 269, (7R)-2,2-difluoro-N-[(2R,4R)-2-{trans-4-[(2-hydroxy-1-phenylethyl)carbamoyl]cyclohexyl}-7-(trifluoromethoxy)-3,4-dihydro-2H-1-benzopyran-4-yl]-7-methyl-6,7-dihydro-2H-furo[2,3-f][1,3]benzodioxole-7-carboxamide] | 7.30 | 192 |
| C[C@]1(C(=O)N[C@@H]2C[C@H]([C@H]3CC[C@H](C(=O)N4CCC(F)(F)CC4)CC3)Oc3cc(OC(F)(F)F)ccc32)COc2cc3c(cc21)OC(F)(F)O3 [Example 270, (7R)—N-[(2R,4R)-2-[trans-4-(4,4-difluoropiperidine-1-carbonyl)cyclohexyl]-7-(trifluoromethoxy)-3,4-dihydro-2H-1-benzopyran-4-yl]-2,2-difluoro-7-methyl-6,7-dihydro-2H-furo[2,3-f][1,3]benzodioxole-7-carboxamide] | 6.74 | 229 |
| C[C@]1(C(=O)N[C@@H]2C[C@H]([C@H]3CC[C@H](C(=O)N4CCOCC4)CC3)Oc3cc(OC(F)(F)F)ccc32)COc2cc3c(cc21)OC(F)(F)O3 [Example 271, (7R)-2,2-difluoro-7-methyl-N-[(2R,4R)-2-[trans-4-(morpholine-4-carbonyl)cyclohexyl]-7-(trifluoromethoxy)-3,4-dihydro-2H-1-benzopyran-4-yl]-6,7-dihydro-2H-furo[2,3-f][1,3]benzodioxole-7-carboxamide] | 7.22 | 172 |
| COc1ccc2c(c1)O[C@@H](COC[C@H](O)CO)C[C@H]2NC(=O)[C@@]1(C)COc2cc3c(cc21)OC(F)(F)O3 [Example 274, (7R)—N-[(2R,4R)-2-{[(2R)-2,3-dihydroxypropoxy]methyl}-7-methoxy-3,4-dihydro-2H-1-benzopyran-4-yl]-2,2-difluoro-7-methyl-6,7-dihydro-2H-furo[2,3-f][1,3]benzodioxole-7-carboxamide] | 6.07 | 99 |
| COc1ccc2c(c1)O[C@H](COC[C@H](O)CO)C[C@@H]2NC(=O)[C@@]1(C)COc2cc3c(cc21)OC(F)(F)O3 [Example 275, (7R)—N-[(2S,4S)-2-{[(2R)-2,3-dihydroxypropoxy]methyl}-7-methoxy-3,4-dihydro-2H-1-benzopyran-4-yl]-2,2-difluoro-7-methyl-6,7-dihydro-2H-furo[2,3-f][1,3]benzodioxole-7-carboxamide] | < 4.70 | 7 |
| COc1ccc2c(c1)O[C@@H](COCc1ccccc1)C[C@H]2NC(=O)[C@@]1(C)COc2cc3c(cc21)OC(F)(F)O3 [Example 276, (7R)—N-{(2R,4R)-2-[(benzyloxy)methyl]-7-methoxy-3,4-dihydro-2H-1-benzopyran-4-yl}-2,2-difluoro-7-methyl-6,7-dihydro-2H-furo[2,3-f][1,3]benzodioxole-7-carboxamide] | 6.15 | 117 |
| COc1ccc2c(c1)O[C@@H](CO)C[C@H]2NC(=O)[C@@]1(C)COc2cc3c(cc21)OC(F)(F)O3 [Example 277, (7R)-2,2-difluoro-N-[(2R,4R)-2-(hydroxymethyl)-7-methoxy-3,4-dihydro-2H-1-benzopyran-4-yl]-7-methyl-6,7-dihydro-2H-furo[2,3-f][1,3]benzodioxole-7-carboxamide] | 6.18 | 110 |
| COc1ccc2c(c1)O[C@H](COCc1ccccc1)C[C@@H]2NC(=O)[C@@]1(C)COc2cc3c(cc21)OC(F)(F)O3 [Example 278, (7R)—N-{(2S,4S)-2-[(benzyloxy)methyl]-7-methoxy-3,4-dihydro-2H-1-benzopyran-4-yl}-2,2-difluoro-7-methyl-6,7-dihydro-2H-furo[2,3-f][1,3]benzodioxole-7-carboxamide] | 5.81 | 86 |
| C[C@]1(C(=O)N[C@@H]2C[C@H](C3(C(=O)N(CCO)CCO)CC3)Oc3cc(OC(F)(F)F)ccc32)COc2cc3c(cc21)OC(F)(F)O3 [Example 279, (7R)—N-[(2R,4R)-2-{1-[bis(2-hydroxyethyl)carbamoyl]cyclopropyl}-7-(trifluoromethoxy)-3,4-dihydro-2H-1-benzopyran-4-yl]-2,2-difluoro-7-methyl-6,7-dihydro-2H-furo[2,3-f][1,3]benzodioxole-7-carboxamide] | 6.25 | 119 |
| C[C@]1(C(=O)N[C@H]2C[C@@H](C3(C(=O)N(CCO)CCO)CC3)Oc3cc(OC(F)(F)F)ccc32)COc2cc3c(cc21)OC(F)(F)O3 [Example 280, (7R)—N-[(2S,4S)-2-{1-[bis(2-hydroxyethyl)carbamoyl]cyclopropyl}-7-(trifluoromethoxy)-3,4-dihydro-2H-1-benzopyran-4-yl]-2,2-difluoro-7-methyl-6,7-dihydro-2H-furo[2,3-f][1,3]benzodioxole-7-carboxamide] | < 4.70 | 10 |
| COc1ccc2c(c1)O[C@@H](c1nnnn1Cc1ccccc1)C[C@H]2NC(=O)[C@@]1(C)COc2cc3c(cc21)OC(F)(F)O3 [Example 283, (7R)—N-[(2R,4R)-2-(1-benzyl-1H-tetrazol-5-yl)-7-methoxy-3,4-dihydro-2H-1-benzopyran-4-yl]-2,2-difluoro-7-methyl-6,7-dihydro-2H-furo[2,3-f][1,3]benzodioxole-7-carboxamide] | 5.75 | 95 |
| COc1ccc2c(c1)O[C@H](Cn1ncccc1=O)C[C@@H]2NC(=O)[C@@]1(C)COc2cc3c(cc21)OC(F)(F)O3 [Example 284, (7R)-2,2-difluoro-N-{(2S,4S)-7-methoxy-2-[(6-oxopyridazin-1(6H)-yl)methyl]-3,4-dihydro-2H-1-benzopyran-4-yl}-7-methyl-6,7-dihydro-2H-furo[2,3-f][1,3]benzodioxole-7-carboxamide] | 5.40 | 40 |
| COc1ccc2c(c1)O[C@@H](Cn1ncccc1=O)C[C@H]2NC(=O)[C@@]1(C)COc2cc3c(cc21)OC(F)(F)O3 [Example 285, (7R)-2,2-difluoro-N-{(2R,4R)-7-methoxy-2-[(6-oxopyridazin-1(6H)-yl)methyl]-3,4-dihydro-2H-1-benzopyran-4-yl}-7-methyl-6,7-dihydro-2H-furo[2,3-f][1,3]benzodioxole-7-carboxamide] | 5.95 | 54 |
| C[C@]1(C(=O)Nc2cc3cc(C4(COCc5ccccc5)CC4)n(C[C@@H](O)COCc4ccccc4)c3cc2F)COc2cc3c(cc21)OC(F)(F)O3 [Example 286, (7R)—N-(1-[(2R)-3-(benzyloxy)-2-hydroxypropyl]-2-{1-[(benzyloxy)methyl]cyclopropyl}-6-fluoro-1H-indol-5-yl)-2,2-difluoro-7-methyl-6,7-dihydro-2H-furo[2,3-f][1,3]benzodioxole-7-carboxamide] | 6.68 | 120 |
| CCOC(=O)C1(CN)CCC([C@H]2C[C@@H](NC(=O)[C@@]3(C)COc4cc5c(cc43)OC(F)(F)O5)c3ccc(OC(F)(F)F)cc3O2)CC1 (stereo partly drawn) [Example 287, ethyl 1-(aminomethyl)-4-[(2R,4R)-4-{[(7R)-2,2-difluoro-7-methyl-6,7-dihydro-2H-furo[2,3-f][1,3]benzodioxole-7-carbonyl]amino}-7-(trifluoromethoxy)-3,4-dihydro-2H-1-benzopyran-2-yl]cyclohexane-1-carboxylate] | 6.19 | 199 |
